Test results published in US11613556B2, “Oxysterols and methods of use thereof” (Sage Therapeutics, Inc., priority 2016, dated 2023).
Like-named read-outs stand apart in the source and are kept apart here.

Assays:
Format in all cases: cell-based
[1] = target: GluN2B glutamate receptors expressed in mammalian cells (Homo sapiens (Human), UniProt Q05586+Q13224); assay: Whole-cell patch clamp of mammalian cells (Ionworks Barracuda), positive allosteric modulation, GluN2B; settings: for Emax: read-out: GluN2B PCA EMax (%)
GluN2B glutamate receptors expressed in mammalian cells, sequence (Q13224 27-1484, other chains not shown): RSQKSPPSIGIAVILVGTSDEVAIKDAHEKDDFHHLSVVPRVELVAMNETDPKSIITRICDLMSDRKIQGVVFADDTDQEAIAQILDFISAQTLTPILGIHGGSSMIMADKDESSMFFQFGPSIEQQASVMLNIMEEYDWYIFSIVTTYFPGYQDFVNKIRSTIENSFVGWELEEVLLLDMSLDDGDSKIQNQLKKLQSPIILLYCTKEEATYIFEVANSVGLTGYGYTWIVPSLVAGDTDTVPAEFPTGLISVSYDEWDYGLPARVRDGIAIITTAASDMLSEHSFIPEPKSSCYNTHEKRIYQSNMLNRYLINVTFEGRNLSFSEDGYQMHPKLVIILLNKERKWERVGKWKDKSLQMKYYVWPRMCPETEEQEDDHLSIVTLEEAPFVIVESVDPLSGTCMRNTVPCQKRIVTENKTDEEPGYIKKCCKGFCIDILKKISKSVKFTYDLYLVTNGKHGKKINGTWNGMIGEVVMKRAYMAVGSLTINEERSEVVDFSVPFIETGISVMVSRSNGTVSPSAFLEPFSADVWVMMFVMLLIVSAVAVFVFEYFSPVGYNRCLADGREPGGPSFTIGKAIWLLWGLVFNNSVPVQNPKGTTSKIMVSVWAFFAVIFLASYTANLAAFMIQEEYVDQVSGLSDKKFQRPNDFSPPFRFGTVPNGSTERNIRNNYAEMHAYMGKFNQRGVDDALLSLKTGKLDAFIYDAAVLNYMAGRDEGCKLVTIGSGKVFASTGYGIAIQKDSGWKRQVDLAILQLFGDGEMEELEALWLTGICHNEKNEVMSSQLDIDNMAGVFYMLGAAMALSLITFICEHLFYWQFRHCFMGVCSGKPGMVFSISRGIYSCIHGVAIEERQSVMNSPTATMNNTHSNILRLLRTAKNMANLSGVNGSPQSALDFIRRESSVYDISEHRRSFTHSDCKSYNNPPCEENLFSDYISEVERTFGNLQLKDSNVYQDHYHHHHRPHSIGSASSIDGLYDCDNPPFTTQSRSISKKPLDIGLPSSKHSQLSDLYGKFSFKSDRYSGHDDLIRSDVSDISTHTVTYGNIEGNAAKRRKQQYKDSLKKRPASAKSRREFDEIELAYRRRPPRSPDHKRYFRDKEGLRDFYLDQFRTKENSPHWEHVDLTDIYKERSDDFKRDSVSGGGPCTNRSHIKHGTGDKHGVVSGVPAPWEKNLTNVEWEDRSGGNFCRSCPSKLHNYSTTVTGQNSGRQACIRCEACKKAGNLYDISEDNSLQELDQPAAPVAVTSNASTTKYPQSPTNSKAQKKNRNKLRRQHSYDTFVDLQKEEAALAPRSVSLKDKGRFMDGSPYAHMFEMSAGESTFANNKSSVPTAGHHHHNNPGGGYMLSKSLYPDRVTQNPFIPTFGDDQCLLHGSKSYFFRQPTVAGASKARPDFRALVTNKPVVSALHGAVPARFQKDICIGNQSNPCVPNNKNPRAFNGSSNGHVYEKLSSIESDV
How it was run: (§1)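 Ionworks Barracuda perforated-patch recordings, holding −70 mV, −40 mV during application; CsCl/CsF intracellular pH 7.2, HB-PS extracellular pH 7.4 with 5 mM CaCl2. 5 min pre-application of test article alone, then co-application with EC20 L-glutamate plus 30 μM glycine; potentiation read as peak current amplitude.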

[2] = target: GluN1/GluN2A glutamate receptors (human GRIN1/GRIN2A) expressed in HEK293 cells (Homo sapiens (Human), UniProt Q05586+Q12879); assay: Whole-cell patch clamp of mammalian cells (Ionworks Barracuda), positive allosteric modulation, GluN1/GluN2A; settings: for Emax: read-out: GluN2A PCA EMax (%)
GluN1/GluN2A glutamate receptors (human GRIN1/GRIN2A) expressed in HEK293 cells, sequence (Q12879 whole entry, looked up, other chains not shown): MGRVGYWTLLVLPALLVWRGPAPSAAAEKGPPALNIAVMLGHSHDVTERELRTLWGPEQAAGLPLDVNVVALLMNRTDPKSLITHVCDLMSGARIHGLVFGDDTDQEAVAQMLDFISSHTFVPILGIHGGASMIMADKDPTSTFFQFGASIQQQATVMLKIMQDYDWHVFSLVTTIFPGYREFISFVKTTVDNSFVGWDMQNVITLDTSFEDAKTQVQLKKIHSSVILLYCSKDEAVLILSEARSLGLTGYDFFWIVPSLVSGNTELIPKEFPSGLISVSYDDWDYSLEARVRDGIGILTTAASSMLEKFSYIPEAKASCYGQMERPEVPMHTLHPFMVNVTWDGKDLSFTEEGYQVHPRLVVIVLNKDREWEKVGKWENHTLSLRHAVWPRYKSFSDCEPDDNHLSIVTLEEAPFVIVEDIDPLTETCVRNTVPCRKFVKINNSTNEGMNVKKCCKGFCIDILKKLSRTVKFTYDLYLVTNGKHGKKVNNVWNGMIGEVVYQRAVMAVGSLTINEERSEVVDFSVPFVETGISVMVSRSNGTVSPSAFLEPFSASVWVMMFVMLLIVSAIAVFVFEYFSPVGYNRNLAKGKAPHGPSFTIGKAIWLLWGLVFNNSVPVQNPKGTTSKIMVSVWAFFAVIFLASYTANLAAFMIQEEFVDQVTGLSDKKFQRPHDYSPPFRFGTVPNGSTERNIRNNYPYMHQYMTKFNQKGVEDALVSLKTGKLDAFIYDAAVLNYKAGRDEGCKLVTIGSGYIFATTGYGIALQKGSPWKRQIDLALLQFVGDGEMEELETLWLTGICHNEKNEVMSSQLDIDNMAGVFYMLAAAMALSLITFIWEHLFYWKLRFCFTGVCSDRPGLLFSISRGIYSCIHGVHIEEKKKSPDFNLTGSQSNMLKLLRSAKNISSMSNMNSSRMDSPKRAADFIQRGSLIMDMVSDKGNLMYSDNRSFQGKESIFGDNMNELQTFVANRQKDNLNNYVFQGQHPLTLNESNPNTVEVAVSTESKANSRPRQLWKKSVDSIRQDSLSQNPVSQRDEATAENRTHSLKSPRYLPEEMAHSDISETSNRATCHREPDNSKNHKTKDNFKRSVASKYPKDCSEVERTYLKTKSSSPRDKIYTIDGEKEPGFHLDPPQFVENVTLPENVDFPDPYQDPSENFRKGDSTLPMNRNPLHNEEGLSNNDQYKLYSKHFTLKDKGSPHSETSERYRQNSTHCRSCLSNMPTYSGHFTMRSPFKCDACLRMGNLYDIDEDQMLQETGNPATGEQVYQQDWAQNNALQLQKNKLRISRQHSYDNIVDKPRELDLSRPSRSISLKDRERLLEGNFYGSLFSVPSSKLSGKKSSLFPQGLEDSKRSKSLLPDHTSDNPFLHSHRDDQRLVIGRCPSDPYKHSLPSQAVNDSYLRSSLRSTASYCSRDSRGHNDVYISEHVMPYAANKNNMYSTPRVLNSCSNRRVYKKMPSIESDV
How it was run: as §1

[3] = target: glutamate-activated channels of the GRIN1/2A subtype stably transfected in HEK 293 cells (Homo sapiens (Human), UniProt Q05586+Q12879); assay: Automated patch-clamp system (QPatch HTX), percent potentiation at 1 μM; settings: HEK293, 1 μM test compound, 300 μM NMDA with 8 μM glycine, HEK 293 GRIN1/2A, read-out: GluN2A PCA % potentiation at 1 μM
glutamate-activated channels of the GRIN1/2A subtype stably transfected in HEK 293 cells, sequence (Q12879 whole entry, looked up, other chains not shown): as above
How it was run: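 Tetracycline-induced HEK 293 cells stably expressing human GRIN1/2A were whole-cell recorded on QPatch HTX in Mg-free bath solution at pH 7.4. Compound at 1.0 μM (0.1% DMSO) was co-applied with submaximal 300 μM NMDA plus 8 μM glycine, and percent potentiation was recorded.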

[4] = peak current amplitude, co-application with EC20 L-glutamate and 30 μM glycine, HEK293, read-out: GluN2A PCA EC50
[5] = peak current amplitude, co-application with EC20 L-glutamate and 30 μM glycine, HEK293
[6] = peak current amplitude, co-application with EC20 L-glutamate and 30 μM glycine, read-out: GluN2B PCA EC50
[7] = peak current amplitude, co-application with EC20 L-glutamate and 30 μM glycine

SMILES | EC50 [1] [nM] | Emax [1] [%] | EC50 [2, 4] [nM] | Emax [2, 5] [%] | activation at 1 µM [3] [%] | EC50 [1, 6] [nM] | Emax [1, 7] [%] | EC50 [2] [nM]
CC[C@]1(O)CC[C@@]2(C)[C@@H](CC[C@@H]3[C@@H]2CC[C@]2(C)[C@@H]([C@H](C)[C@@H](O)CC4CCC(C)(C)CC4)CC[C@@H]32)C1 [Compound 4, (3S,5S,8R,9S,10S,13S,14S,17R)-17-((2S,3S)-4-(4,4-dimethylcyclohexyl)-3-hydroxybutan-2-yl)-3-ethyl-10,13-dimethylhexadecahydro-1H-cyclopenta[a]phenanthren-3-ol] | > 1000 | < 100 | 1 to 100 | < 100 | < -40 |  |  | 
CC[C@]1(O)CC[C@@]2(C)C(=CC[C@H]3[C@@H]4CC[C@H]([C@H](C)[C@H](O)CCC5CC5)[C@@]4(C)CC[C@@H]32)C1 [Compound 6, (3S,8S,9S,10R,13S,14S,17R)-17-((2S,3R)-5-cyclopropyl-3-hydroxypentan-2-yl)-3-ethyl-10,13-dimethyl-2,3,4,7,8,9,10,11,12,13,14,15,16,17-tetradecahydro-1H-cyclopenta[a]phenanthren-3-ol] |  |  |  | < 100 | -10 to 10 | > 1000 | < 100 | > 1000
CC(C)CC[C@H](O)[C@@H](C)[C@H]1CC[C@H]2[C@@H]3CC[C@H]4C[C@@](C)(O)CC[C@]4(C)[C@H]3CC[C@]12C [Compound 8, (3S,5S,8R,9S,10S,13S,14S,17R)-17-((2S,3S)-3-hydroxy-6-methylheptan-2-yl)-3,10,13-trimethylhexadecahydro-1H-cyclopenta[a]phenanthren-3-ol] |  |  |  | < 100 | < -40 | > 1000 | < 100 | > 1000
CC[C@]1(O)CC[C@@]2(C)C(=CC[C@H]3[C@@H]4CC[C@H]([C@H](C)[C@H](O)CC5CCC(C)(C)CC5)[C@@]4(C)CC[C@@H]32)C1 [Compound 12, (3S,8S,9S,10R,13S,14S,17R)-17-((2S,3R)-4-(4,4-dimethylcyclohexyl)-3-hydroxybutan-2-yl)-3-ethyl-10,13-dimethyl-2,3,4,7,8,9,10,11,12,13,14,15,16,17-tetradecahydro-1H-cyclopenta[a]phenanthren-3-ol] |  |  |  | < 100 | -10 to 10 | > 1000 | < 100 | > 1000
CC[C@]1(O)CC[C@@]2(C)[C@@H](CC[C@@H]3[C@@H]2CC[C@]2(C)[C@@H]([C@H](C)[C@H](O)CC4CCC(C)(C)CC4)CC[C@@H]32)C1 [Compound 20, (3S,5S,8R,9S,10S,13S,14S,17R)-17-((2S,3R)-4-(4,4-dimethylcyclohexyl)-3-hydroxybutan-2-yl)-3-ethyl-10,13-dimethylhexadecahydro-1H-cyclopenta[a]phenanthren-3-ol] | > 1000 | < 100 | > 1000 | < 100 | -40 to -10 |  |  | 
CCC[C@H](O)[C@@H](C)[C@H]1CC[C@H]2[C@@H]3CC[C@@H]4C[C@](O)(CC)CC[C@]4(C)[C@H]3CC[C@]12C [Compound 23, (3S,5R,8R,9S,10S,13S,14S,17R)-3-ethyl-17-((2S,3S)-3-hydroxyhexan-2-yl)-10,13-dimethylhexadecahydro-1H-cyclopenta[a]phenanthren-3-ol] |  |  |  | < 100 | -40 to -10 | > 1000 | 100 to 500 | > 1000
CC[C@]1(O)CC[C@@]2(C)[C@@H](CC[C@@H]3[C@@H]2CC[C@]2(C)[C@@H]([C@H](C)[C@@H](O)Cc4ccccc4)CC[C@@H]32)C1 [Compound 32, (3S,5S,8R,9S,10S,13S,14S,17R)-3-ethyl-17-((2S,3S)-3-hydroxy-4-phenylbutan-2-yl)-10,13-dimethylhexadecahydro-1H-cyclopenta[a]phenanthren-3-ol] |  |  |  | < 100 | -10 to 10 | > 1000 | < 100 | > 1000
CCC[C@H](O)[C@@H](C)[C@H]1CC[C@H]2[C@@H]3CC[C@H]4C[C@](O)(CC)CC[C@]4(C)[C@H]3CC[C@]12C [Compound 38, (3S,5S,8R,9S,10S,13S,14S,17R)-3-ethyl-17-((2S,3S)-3-hydroxyhexan-2-yl)-10,13-dimethylhexadecahydro-1H-cyclopenta[a]phenanthren-3-ol] |  |  |  | < 100 | -40 to -10 | > 1000 | < 100 | > 1000
CC[C@]1(O)CC[C@H]2[C@@H](CC[C@@H]3[C@@H]2CC[C@]2(C)[C@@H]([C@H](C)[C@H](O)CCC(C)C)CC[C@@H]32)C1 [Compound 40, (3S,5S,8R,9R,10S,13S,14S,17R)-3-ethyl-17-((2S,3R)-3-hydroxy-6-methylheptan-2-yl)-13-methylhexadecahydro-1H-cyclopenta[a]phenanthren-3-ol] |  |  |  | < 100 | -10 to 10 | > 1000 | 100 to 500 | > 1000
CC[C@]1(O)CC[C@@]2(C)C(=CC[C@H]3[C@@H]4CC[C@H]([C@H](C)[C@H](O)CC5CCCC5)[C@@]4(C)CC[C@@H]32)C1 [Compound 46, (3S,8S,9S,10R,13S,14S,17R)-17-((2S,3R)-4-cyclopentyl-3-hydroxybutan-2-yl)-3-ethyl-10,13-dimethyl-2,3,4,7,8,9,10,11,12,13,14,15,16,17-tetradecahydro-1H-cyclopenta[a]phenanthren-3-ol] |  |  |  | < 100 | -40 to -10 | > 1000 | < 100 | > 1000
CC[C@]1(O)CC[C@@]2(C)[C@H](CC[C@@H]3[C@@H]2CC[C@]2(C)[C@@H]([C@H](C)[C@@H](O)CC4CCC(C)(C)CC4)CC[C@@H]32)C1 [Compound 59, (3S,5R,8R,9S,10S,13S,14S,17R)-17-((2S,3S)-4-(4,4-dimethylcyclohexyl)-3-hydroxybutan-2-yl)-3-ethyl-10,13-dimethylhexadecahydro-1H-cyclopenta[a]phenanthren-3-ol] | > 1000 | < 100 | > 1000 | < 100 | < -40 |  |  | 
CC[C@]1(O)CC[C@@]2(C)[C@H](CC[C@@H]3[C@@H]2CC[C@]2(C)[C@@H]([C@H](C)[C@H](O)CC4CCCC4)CC[C@@H]32)C1 [Compound 67, (3S,5R,8R,9S,10S,13S,14S,17R)-17-((2S,3R)-4-cyclopentyl-3-hydroxybutan-2-yl)-3-ethyl-10,13-dimethylhexadecahydro-1H-cyclopenta[a]phenanthren-3-ol] |  |  |  | < 100 | -10 to 10 | > 1000 | < 100 | > 1000
CC[C@]1(O)CC[C@@]2(C)C(=CC[C@H]3[C@@H]4CC[C@H]([C@H](C)[C@@H](O)CCC5CC5)[C@@]4(C)CC[C@@H]32)C1 [Compound 69, (3S,8S,9S,10R,13S,14S,17R)-17-((2S,3S)-5-cyclopropyl-3-hydroxypentan-2-yl)-3-ethyl-10,13-dimethyl-2,3,4,7,8,9,10,11,12,13,14,15,16,17-tetradecahydro-1H-cyclopenta[a]phenanthren-3-ol] |  |  |  | < 100 | -10 to 10 | > 1000 | < 100 | > 1000
CCC[C@H](O)[C@@H](C)[C@H]1CC[C@H]2[C@@H]3CC=C4C[C@](O)(CC)CC[C@]4(C)[C@H]3CC[C@]12C [Compound 72, (3S,8S,9S,10R,13S,14S,17R)-3-ethyl-17-((2S,3S)-3-hydroxyhexan-2-yl)-10,13-dimethyl-2,3,4,7,8,9,10,11,12,13,14,15,16,17-tetradecahydro-1H-cyclopenta[a]phenanthren-3-ol] |  |  |  | < 100 | -40 to -10 | > 1000 | < 100 | > 1000
CC[C@]1(O)CC[C@@]2(C)[C@@H](CC[C@@H]3[C@@H]2CC[C@]2(C)[C@@H]([C@H](C)[C@H](O)CC4CCCC4)CC[C@@H]32)C1 [Compound 84, (3S,5S,8R,9S,10S,13S,14S,17R)-17-((2S,3R)-4-cyclopentyl-3-hydroxybutan-2-yl)-3-ethyl-10,13-dimethylhexadecahydro-1H-cyclopenta[a]phenanthren-3-ol] |  |  |  | < 100 | -10 to 10 | > 1000 | < 100 | > 1000
CC[C@]1(O)CC[C@@]2(C)[C@H](CC[C@@H]3[C@@H]2CC[C@]2(C)[C@@H]([C@H](C)[C@H](O)CC4CCC(C)(C)CC4)CC[C@@H]32)C1 [Compound 87, (3S,5R,8R,9S,10S,13S,14S,17R)-17-((2S,3R)-4-(4,4-dimethylcyclohexyl)-3-hydroxybutan-2-yl)-3-ethyl-10,13-dimethylhexadecahydro-1H-cyclopenta[a]phenanthren-3-ol] | > 1000 | < 100 | > 1000 | < 100 | -10 to 10 |  |  | 
